{"source": "patent US20240287005A1", "about": "“ISOXAZOLINE PESTICIDES” (Elanco Tiergesundheit AG, priority 2021, published 2024)", "system": "Ctenocephalides felis", "experiment": "In vitro evaluation of contact activity against adult cat fleas", "conditions": "adult fleas in coated glass vial, after 48 h", "description": "In vitro contact tests with […] are conducted with adult males and females of Ctenocephalides felis. For the coating of the test vials, the test substance is dissolved and diluted in acetone p.a. to the desired concentration. The solution is then homogeneously applied to the inner walls and base of a glass vial by turning and rocking on an orbital shaker until complete evaporation of the solvent. For example, with 900 ppm solution of test substance an area-based dose of 5 μg/cm^2 is achieved.\nAfter the solvent is completely evaporated, approximately 10 adult fleas are applied to each coated test vial, which is then sealed with a perforated plastic lid and incubated in a horizontal position in the dark at room temperature and ambient humidity. Insecticidal activity is determined after 48 h. Fleas which remain motionless on the base of the test vial or move uncoordinated without occasionally jumping or walking straight are considered dead or moribund, respectively. An insecticidal activity of 100% means all fleas were dead or moribund. An insecticidal activity of 0% means none of the fleas was affected. From a dose response curve the respective EC50 was calculated (4-parameter logistic curve fitting).", "data": [{"compound": "Cc1cc(C2=NOC(c3cc(C(F)(F)F)cc(C(F)(F)F)c3F)(C(F)(F)F)C2)ccc1C(=O)NCC(=O)NCC(F)(F)F", "note": "(single isomer, unassigned) [Example 3.1]", "values": [{"measurement": "EC50 insecticidal activity (fleas dead or moribund)", "result": "< 0.05", "unit": "μg/cm^2"}]}]}
